This is an account of results in paper PMC6013775, “Inhibition of the key enzyme of sialic acid biosynthesis by C6-Se modified N-acetylmannosamine analogs” (Chemical Science, 2016).

The term IC50 denotes the concentration that gives 50% inhibition.

Data set [1] deals with Jurkat cells. Description: Cell surface sialylation, 6'-sialyl-LacNAc by FITC-PSL flow cytometry. The data set is classed as cell-based. The settings on record: 72 h. (In flow cytometry, cells or beads pass a laser one at a time.)
Data set [2] concerns Jurkat cells. The following applies: human, 72 h, 100 μM.
The test system of another data set is HepG2 cells. Further details: method as in PMID 1312935. The settings on record: 1 mM final concentration; cited from earlier work.
For data set [3], the target named is T1, human MNK (N-acetylmannosamine kinase) (Homo sapiens, UniProt Q9Y223).
T1 construct: His; made in house; host or cells: Escherichia coli BL21-CodonPlus (DE3)-RIL
T1 sequence (Q9Y223 406-722 limits assumed): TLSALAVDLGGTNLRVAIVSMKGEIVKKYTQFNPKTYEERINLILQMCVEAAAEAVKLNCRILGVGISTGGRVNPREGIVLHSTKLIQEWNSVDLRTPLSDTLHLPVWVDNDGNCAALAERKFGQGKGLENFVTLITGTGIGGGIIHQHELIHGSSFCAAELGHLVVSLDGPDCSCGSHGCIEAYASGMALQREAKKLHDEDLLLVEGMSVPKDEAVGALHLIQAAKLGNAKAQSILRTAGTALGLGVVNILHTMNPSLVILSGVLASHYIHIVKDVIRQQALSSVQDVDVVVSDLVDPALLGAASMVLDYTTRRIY
Description: MNK activity, coupled optical assay based on NADH consumption. The following applies: for IC50: purified human MNK, ManNAc 125 μM, ATP, means ± SEM, read-out: IC50 for MNK inhibition. It is filed as biochemical. On the procedure: N-Acetylmannosamine kinase and N-acetylglucosamine kinase expression and […]
Human N-acetylmannosamine kinase (MNK) was expressed and purified using an established method.1 Therefore, his-tagged MNK was expressed in BL21-CodonPlus (DE3)-RIL Escherichia coli (Stragene). Purification was performed by Ni-NTA affinity chromatography, and subsequently size exclusion chromatography on a SuperdexTM HighLoad 16/600 column (GE Healthcare). […]
To evaluate their purity, protein samples were mixed with SDS-PAGE sample buffer, denatured at 90 °C for 1 min and separated by a 10% SDS-PAGE gel. Proteins were visualized with Coomassie G-250 staining solution (Biorad), and PageRuler Prestained Plus (Biorad) was used as a marker (Figure S1 ).
Figure S1. SDS-PAGE of His-tagged MNK (His-MNK) and GST-tagged GNK
(GST-GNK) after affinity chromatography and size exclusion chromatography.
Apparent molecular masses given by the marker are indicated on the left side.
1 J. Martinez, L. D. Nguyen, S. Hinderlich, R. Zimmer, E. Tauberger, W. Reutter, W. Saenger, H. Fan
2 W.A. Weihofen, M. Berger, H. Chen, W. Saenger, and S. Hinderlich, J. Mol. Biol., 2006, 364, 388.
(1 picture or pasted object on this page, not shown here)
Enzyme activity and inhibition studies using N-acetylmannosamine kinase, N-acetylglucosamine kinase and yeast hexokinase
Evaluation MNK activity in presence of the compounds 11, 12, 14b, 16b and 18b The effects of compounds 11, 12, 14b, 16b, or 18b on MNK enzyme activity were evaluated using a coupled optical assay. 55 µl reaction mixture contained the following buffers and reagents: 39.5 µl buffer A (65 mM MgCl2, 200 mM Tris-HCl, pH 8.1), 5 µl ATP (50 mM), 3.5 µl NADH (30 mM), 2 µl phosphoenolpyruvate (100 mM), 2 U pyruvate-kinase, 2 U lactate-dehydrogenase, 5 µl ManNAc of varying concentrations. Subsequently, 10 µl of the compounds 11, 12, 14b, 16b and 18b were added in varying concentrations. The reaction was initiated by adding 0.6 µg MNK in 35 µL buffer B (10 mM Tris-HCl, 150 mM NaCl, pH 8.0). Samples were incubated at 37°C. Spectrophotometric measurements of NADH concentration was performed at 340 nm. Results obtained were normalized to blanks, consisting of 55 µl reaction mixture, 10 µl H 2O and 35 µl buffer B without MNK.
GNK and hexokinase inhibition assays using compound 14b
To evaluate the specificity of the inhibitor 14b towards other sugar kinases, we performed further inhibition experiments using human GNK and hexokinase (HK) from yeast (Sigma, H-5000). 39.5 µl Buffer A (see above), 5 µl ATP (50 mM), 3.5 µl NADH (30 mM), 2 µl phosphoenolpyruvate (100 mM), 2 U pyruvate-kinase, 2 U lactate-dehydrogenase, 5 µl GlcNAc (7.5 mM, for GNK experiments), or 5 µl ManNAc (7.5 mM, for GNK experiments), or glucose (5 mM, for HK experiments), and 10 µl 14b (varying concentrations) were mixed with either 1 µg GNK or 0.2 µg HK in 35 µL buffer B. The decrease of NADH was measured in a spectrophotometer […]
5 mM for HK activity, respectively (Figure S2).
Figure S2. Inhibition of GNK and HK activity by 14b. Values are means ± SEM of […]

Another data set concerns purified ManNAc kinase. More on the design: method as in PMID 12067740, PMID 15368395, PMID 22343627. The following applies: 5 mM final concentration; cited from earlier work.
Data set [4] has as its system UDP-GlcNAc-2-epimerase/MNK kinase. Further details: method as in PMID 12067740, PMID 15368395, PMID 22343627. The following applies: 300 μM; cited from earlier work.
In the next data set the test system is cell surface sialylation. Further details: method as in PMID 25278018. The following applies: 500 μM final concentration in culture medium; cited from earlier work.

Structures are written as SMILES. Entries after “also recorded” stand apart in the source; their conditions may differ. Some results are limits rather than exact numbers.

For the compound `CC(=O)N[C@@H]1C(OC(C)=O)O[C@H](C[Se][Se]C[C@H]2OC(OC(C)=O)[C@@H](NC(C)=O)[C@@H](OC(C)=O)[C@@H]2OC(C)=O)[C@@H](OC(C)=O)[C@@H]1OC(C)=O` (stereo partly drawn) [Compound 14a], the “reduction of 6'-sialyl-LacNAc entity” value in the data set with Jurkat cells [1] (50 μM in cell culture medium) was “approximately 85%”. Also, in the data set on Jurkat cells [2], the “reduction of cell viability” value is on record as “approximately 70%”.
Consider `CO[C@H]1[C@H](O)[C@@H](CO)OC(O)[C@@H]1NC(C)=O` (stereo partly drawn) [Compound 1, 3-O-methyl-N-acetyl-glucosamine], for which the “reduction of incorporation rate of N-GlcNAc and N-ManNAc into glycoproteins” value in the data set with HepG2 cells is given as 70%.
For `CC(=O)N[C@@H]1C(O)O[C@H](CS)[C@@H](O)[C@@H]1O` (stereo partly drawn) [Compound 11], the half-inhibitory concentration (IC50) in data set [3] is above 10 mM.
Same read-out and setting: under `CCCC[Se]C[C@H]1OC(O)[C@@H](NC(C)=O)[C@@H](O)[C@@H]1O` (stereo partly drawn) [Compound 18b] stands 1.9 mM.
Turning to `CC(=O)N[C@@H]1C(OC(C)=O)O[C@H](C[Se]C[C@H]2OC(OC(C)=O)[C@@H](NC(C)=O)[C@@H](OC(C)=O)[C@@H]2OC(C)=O)[C@@H](OC(C)=O)[C@@H]1OC(C)=O` (stereo partly drawn) [Compound 16a], the “effect on cell surface sialylation” value in the data set on Jurkat cells [1] (tested concentrations up to 50 μM) is listed as “no visible effect; also recorded: did not alter cell surface sialylation”.
Take `CC(=O)NC1C(O)OC(COC(C)=O)C(O)C1O` (stereo not drawn) [Compound 3, 6-O-Ac-ManNAc]: the “inhibition of the enzyme” value with purified ManNAc kinase is listed as 60%.
Take `CC(=O)N[C@@H]1C(O)O[C@H](C[Se]C[C@H]2OC(O)[C@@H](NC(C)=O)[C@@H](O)[C@@H]2O)[C@@H](O)[C@@H]1O` (stereo partly drawn) [Compound 16b]: the IC50 in data set [3] came to 3 mM.
On to `CC(=O)N[C@@H]1C(O)O[C@H](CSSC[C@H]2OC(O)[C@@H](NC(C)=O)[C@@H](O)[C@@H]2O)[C@@H](O)[C@@H]1O` (stereo partly drawn) [Compound 12], for which, in data set [3] (MNK IC50 ratio), the “fold higher IC50 in comparison to 14b” value is on record as “approximately 500 fold”. In addition, in data set [3], the half-maximal inhibitory concentration (IC50) worked out at 4.2 mM.
For the compound `CC(=O)NC1C(OP(=O)(O)OP(=O)(O)OCC(C=O)OC(C=O)n2ccc(=O)[nH]c2=O)OC(CO)C(O)C1O` (stereo not drawn) [Compound 7, 2′,3′-dialdehydo-UPD-N-acetylglucosamine], the “inhibition of the enzyme” value in data set [4] is 93%.
`COC1C(O)C(CO)OC(O)C1NC(C)=O` (stereo not drawn) [Compound 2]: in the data set on cell surface sialylation, the “cell surface sialylation reduced to” value is given as 20%.
